This is an account of results in paper PMC10603899, “Reproducibility and Robustness of a Liver Microphysiological System PhysioMimix LC12 under Varying Culture Conditions and Cell Type Combinations” (Bioengineering, 2023).

Structures are written as SMILES. Read-outs that look alike come from different tables or passages of the source.

For data set [1], the system named is PHH (TF-HU8373) + THP-1. The data set is described as follows: Midazolam metabolism (1′-OH MDZ formation) in PhysioMimix LC-12, PHH + THP-1 co-culture. The data set is classed as in vitro ADME, human. Conditions: 5 µM MDZ. Here is the method:
Metabolic capacity was assessed across the various cell type conditions, including both types of hepatocytes. Midazolam (MDZ) was tested as a representative substrate for CYP3A4 [43]. Cells were treated with MDZ for up to 24 h on different days of culture, with sampling at 2, 6, and 24 h after treatment. The collected media was processed using high-performance liquid chromatography tandem mass spectrometry (HPLC-MS/MS) to determine the concentration of both the remaining parent compound (MDZ) and metabolites formed (1′-OH MDZ and 1′-OH MDZ glucuronide). We also tested the metabolism of equimolar mixtures (1 or 5 µM) of 20 pesticides that were previously used to evaluate the metabolic competence of different in vitro liver models. Cells were treated on day 6 of culture, and media were collected for analysis 48 h thereafter. Samples were analyzed using either gas chromatography (GC)-MS/MS or HPLC-MS/MS to determine whether parent molecule concentrations diminished, consistent with the metabolic activity of the cells.
The day when PHHs were seeded into PhysioMimix LC12 plates was defined as day 0 (Figure 1). PHHs were cultured in the PhysioMimix LC12 following the manufacturer’s protocols. PHHs were thawed into CHRM (CM7000, Thermo Fisher), centrifuged at 100× g for 10 min, resuspended in plating media, and then seeded into the PhysioMimix LC12 scaffold at a seeding density of 475,000–600,000 cells/chip. The flow was initiated at 1 µL/s.
For co-culture conditions, THP-1 monocytes and HMEC-1 endothelial cells were seeded either on day 0 or 1 at a seeding density of 60,000–160,000 cells/chip or 60,000 cells/chip, respectively. Primary KCs, HSCs, and LSECs were seeded either on day 0 or 1 at a seeding density of 100,000 cells/chip, 35,000 cells/chip, and 70,000–140,000 cells/chip, respectively. Cell seeding ratios were determined based on previous experiments or reports of the physiological cell ratios in the human liver. Media were collected and exchanged every 1–3 days by aspirating and replacing media from the media reservoir (1.8 mL/chip).
For evaluation of MDZ metabolism, cells were exposed on days 4–16 of culture to 5 µM MDZ (dissolved in methanol for the final concentration of 0.16% v/v). After drug addition, media were collected every 2, 6, and 24 h. After 24 h, the drug treatment media were replaced with fresh maintenance media. For the experiment with pesticide mixtures, we selected chemicals from the Agency for Toxic Substances and Disease Registry Substance Priority List, which contains compounds that are commonly detected at Superfund sites and are known to be hazardous to human health. A molar-equivalent mixture was created by combining all 20 pesticides and diluting them to a final concentration of 1 or 5 μM each in dimethyl sulfoxide (DMSO, final concentration 0.5% v/v). Media was collected 48 h after treatment for the analyses detailed below. For evaluation of immune-mediated toxicity with Trovafloxacin and LPS treatment, PHHs + THP-1 monocytes or PHHs + KCs were exposed on day 6 of culture to 25 or 100 µM of Trovafloxacin, with or without LPS. After 48 h, the drug treatment media were collected for biochemical assays detailed below.
After treatment with MDZ or pesticide mixtures (Supplemental Table S3), 50 µL media samples were mixed with 100 µL of 0.1 or 1 µM internal standard (Caffeine-13C3, C-082, Millipore Sigma; Supplemental Table S3) solution in acetonitrile on ice, respectively. Samples were vortexed and centrifuged (12,000× g, 10 min, room temperature) to allow for protein precipitation. The supernatant was collected from each sample, dried under vacuum, and reconstituted in 50 µL aqueous mobile phase. The reconstituted samples were transferred to glass autosampler vials with 200 µL inserts and stored at −20 °C prior to HPLC-MS/MS analysis. […]

Data set [2] has as its system PHH (TF-HU8373) + THP-1. Briefly: Midazolam metabolism (1′-OH MDZ formation) in 96-well plate, PHH + THP-1. It is filed as in vitro ADME, human. Conditions: PHH + THP-1, day 2, incubation 24 h.
The next data set concerns PHH (various donors). Also noted: method as in PMID 25068923. The note with it: LiverChip, day 4 of culture, estimated from figures, cited from earlier work.
Setting [3] is: PhysioMimix LC-12, PHH + THP-1, day 6, incubation 2 h.
Where [4] appears, read: PhysioMimix LC-12, PHH + THP-1, day 6, incubation 24 h.
Setting [5] is: PhysioMimix LC-12, PHH + THP-1, day 12, incubation 24 h.

For the compound `OCc1ncc2n1-c1ccc(Cl)cc1C(c1ccccc1F)=NC2` [1′-OH-midazolam, 1-hydroxymidazolam], the “1′-OH MDZ Formed, Mean ± S.D.” value in the data set on PHH (TF-HU8373) + THP-1 [1] (setting [3]) is 2.54 ± 1.64 pmol/min/1 M Hep; in the data set on PHH (TF-HU8373) + THP-1 [1] (setting [4]), 0.836 ± 0.556 pmol/min/1 M Hep; in the data set with PHH (TF-HU8373) + THP-1 [1] (setting [5]), 0.971 ± 0.910 pmol/min/1 M Hep; with PHH (TF-HU8373) + THP-1 [2], 0.088 ± 0.077 pmol/min/1 M Hep; in the data set with PHH (various donors) (incubation 2 h), 4.55 ± 2.27 pmol/min/1 M Hep; with PHH (various donors) (incubation 24 h) it was 0.216 ± 0.054 pmol/min/1 M Hep. For the same compound, the “1′-OH MDZ Formed, Median” value in the data set with PHH (TF-HU8373) + THP-1 [1] (setting [3]) is 2.11 pmol/min/1 M Hep; in the data set with PHH (TF-HU8373) + THP-1 [1] (setting [4]), 0.997 pmol/min/1 M Hep; with PHH (TF-HU8373) + THP-1 [1] (setting [5]), 0.933 pmol/min/1 M Hep; with PHH (TF-HU8373) + THP-1 [2], 0.061 pmol/min/1 M Hep.
